Measured values taken from patent publication US12258327B2, “5-membered heteroaryl-containing aminopyridine compounds as EGFR inhibitors” (YUHAN CORPORATION, priority 2021, dated 2025).
Like-named read-outs stand apart in the source and are kept apart here.

Tests used:
EGFR del19/C797S = EGFR del19/C797S (Homo sapiens, UniProt P00533, C797S/DEL746-750); assay: Biochemical EGFR kinase assay (Lance Ultra TR-FRET), double mutant del19/C797S
Method in brief: (§1)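 Kinase activity is measured by TR-FRET phosphopeptide detection. Compounds span 0.003 μM to 10 μM; the 1 h reaction at room temperature is quenched with EDTA, then labelled antibody (2 nM) is incubated 60 min before reading.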

EGFR L858R/C797S = EGFR L858R/C797S (Homo sapiens, UniProt P00533, C797S/L858R); assay: Biochemical EGFR kinase assay (Lance Ultra TR-FRET), double mutant L858R/C797S
Method in brief: as §1

EGFR L858R/T790M/C797S = EGFR L858R/T790M/C797S (Homo sapiens, UniProt P00533, C797S/L858R/T790M); assay: Biochemical EGFR kinase assay (Lance Ultra TR-FRET), triple mutant L858R/T790M/C797S
Method in brief: as §1

EGFR del19/T790M/C797S = EGFR del19/T790M/C797S (Homo sapiens, UniProt P00533, C797S/DEL746-750/T790M); assay: Biochemical EGFR kinase assay (Lance Ultra TR-FRET), triple mutant del19/T790M/C797S
Method in brief: as §1

EGFR wildtype (WT) = EGFR wildtype (WT) (Homo sapiens, UniProt P00533); assay: Biochemical EGFR kinase assay (Lance Ultra TR-FRET), wildtype
Method in brief: as §1

[1] = Km ATP, read-out: IC50 del19/C797S (nM) Km ATP
[2] = Km ATP, read-out: IC50 L858R/C797S (nM) Km ATP
[3] = Km ATP, read-out: IC50 L858R/T790M/C797S (nM) Km ATP
[4] = Km ATP, read-out: IC50 del19/T790M/C797S (nM) Km ATP
[5] = Km ATP, read-out: IC50 WT (nM) Km ATP
[6] = IC50 del19/C797S (nM) 100 μM ATP, 100 μM ATP
[7] = IC50 L858R/C797S (nM) 100 μM ATP, 100 μM ATP
[8] = IC50 L858R/T790M/C797S (nM) 100 μM ATP, 100 μM ATP
[9] = IC50 del19/T790M/C797S (nM) 100 μM ATP, 100 μM ATP
[10] = IC50 WT (nM) 100 μM ATP, 100 μM ATP
[11] = Km ATP, read-out: IC50 del19/C797S, Km ATP
[12] = Km ATP, read-out: IC50 L858R/C797S, Km ATP
[13] = Km ATP, read-out: IC50 L858R/T790M/C797S, Km ATP
[14] = Km ATP, read-out: IC50 del19/T790M/C797S, Km ATP
[15] = Km ATP, read-out: IC50 WT, Km ATP

Sequence of EGFR del19/C797S (P00533 with tags, fused parts or gaps DEL746-750/C797S): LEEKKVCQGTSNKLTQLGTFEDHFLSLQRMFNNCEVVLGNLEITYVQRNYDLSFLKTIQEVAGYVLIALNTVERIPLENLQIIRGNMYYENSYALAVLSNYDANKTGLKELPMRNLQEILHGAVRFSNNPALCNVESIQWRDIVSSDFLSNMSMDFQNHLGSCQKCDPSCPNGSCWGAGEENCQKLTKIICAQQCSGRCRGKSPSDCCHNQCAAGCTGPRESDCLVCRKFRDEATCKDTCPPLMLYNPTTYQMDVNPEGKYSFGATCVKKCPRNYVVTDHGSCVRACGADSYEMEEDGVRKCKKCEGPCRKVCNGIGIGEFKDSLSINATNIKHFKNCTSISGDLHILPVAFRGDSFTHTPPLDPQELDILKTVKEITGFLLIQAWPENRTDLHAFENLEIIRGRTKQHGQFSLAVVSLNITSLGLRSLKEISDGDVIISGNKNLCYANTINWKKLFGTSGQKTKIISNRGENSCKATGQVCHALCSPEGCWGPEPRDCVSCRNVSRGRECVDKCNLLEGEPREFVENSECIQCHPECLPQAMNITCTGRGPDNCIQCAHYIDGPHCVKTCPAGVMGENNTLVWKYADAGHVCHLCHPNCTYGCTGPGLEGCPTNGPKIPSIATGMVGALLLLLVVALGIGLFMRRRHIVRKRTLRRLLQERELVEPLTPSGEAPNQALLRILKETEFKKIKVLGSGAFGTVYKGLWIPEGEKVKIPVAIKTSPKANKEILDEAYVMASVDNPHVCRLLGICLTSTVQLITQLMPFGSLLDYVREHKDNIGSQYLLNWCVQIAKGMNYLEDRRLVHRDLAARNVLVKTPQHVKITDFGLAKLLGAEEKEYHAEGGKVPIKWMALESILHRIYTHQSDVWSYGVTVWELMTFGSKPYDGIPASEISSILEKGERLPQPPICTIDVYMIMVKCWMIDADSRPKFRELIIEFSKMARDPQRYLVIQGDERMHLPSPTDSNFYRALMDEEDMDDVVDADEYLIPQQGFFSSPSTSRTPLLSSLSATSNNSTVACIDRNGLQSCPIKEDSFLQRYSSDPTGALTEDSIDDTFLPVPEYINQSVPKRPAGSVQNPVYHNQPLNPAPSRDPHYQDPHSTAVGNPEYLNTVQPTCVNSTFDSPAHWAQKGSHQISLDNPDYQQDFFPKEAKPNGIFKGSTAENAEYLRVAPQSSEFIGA
Sequence of EGFR L858R/C797S (P00533 25-1210 C797S/L858R): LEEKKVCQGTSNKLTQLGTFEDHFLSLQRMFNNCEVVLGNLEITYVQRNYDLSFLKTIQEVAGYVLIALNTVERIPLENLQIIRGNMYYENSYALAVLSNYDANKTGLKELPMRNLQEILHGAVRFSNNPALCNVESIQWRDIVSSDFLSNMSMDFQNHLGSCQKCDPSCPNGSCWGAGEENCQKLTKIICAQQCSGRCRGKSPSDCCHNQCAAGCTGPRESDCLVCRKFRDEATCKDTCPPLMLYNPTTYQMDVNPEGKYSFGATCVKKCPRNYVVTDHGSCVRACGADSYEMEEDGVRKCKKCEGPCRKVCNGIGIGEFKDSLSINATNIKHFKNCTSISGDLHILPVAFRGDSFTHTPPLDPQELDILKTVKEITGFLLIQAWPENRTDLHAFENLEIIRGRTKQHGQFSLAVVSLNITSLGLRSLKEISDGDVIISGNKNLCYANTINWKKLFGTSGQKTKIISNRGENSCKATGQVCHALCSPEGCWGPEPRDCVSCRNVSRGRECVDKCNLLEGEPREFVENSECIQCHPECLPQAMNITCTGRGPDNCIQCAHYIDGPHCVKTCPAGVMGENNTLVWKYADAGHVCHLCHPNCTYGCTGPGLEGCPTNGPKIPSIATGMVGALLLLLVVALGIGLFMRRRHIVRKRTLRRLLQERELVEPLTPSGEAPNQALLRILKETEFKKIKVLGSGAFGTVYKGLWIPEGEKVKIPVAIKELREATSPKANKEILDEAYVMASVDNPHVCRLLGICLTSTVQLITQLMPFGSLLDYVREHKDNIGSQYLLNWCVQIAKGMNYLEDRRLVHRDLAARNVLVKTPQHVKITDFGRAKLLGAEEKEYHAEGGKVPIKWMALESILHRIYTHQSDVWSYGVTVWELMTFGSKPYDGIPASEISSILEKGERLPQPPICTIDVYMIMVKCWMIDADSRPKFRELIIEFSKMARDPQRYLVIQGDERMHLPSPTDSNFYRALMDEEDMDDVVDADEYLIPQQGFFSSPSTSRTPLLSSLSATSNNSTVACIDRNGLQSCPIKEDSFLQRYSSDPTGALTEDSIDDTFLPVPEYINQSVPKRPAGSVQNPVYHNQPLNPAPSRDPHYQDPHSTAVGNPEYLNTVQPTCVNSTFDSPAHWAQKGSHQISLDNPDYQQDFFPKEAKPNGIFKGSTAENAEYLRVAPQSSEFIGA
Sequence of EGFR del19/T790M/C797S (P00533 with tags, fused parts or gaps DEL746-750/T790M/C797S): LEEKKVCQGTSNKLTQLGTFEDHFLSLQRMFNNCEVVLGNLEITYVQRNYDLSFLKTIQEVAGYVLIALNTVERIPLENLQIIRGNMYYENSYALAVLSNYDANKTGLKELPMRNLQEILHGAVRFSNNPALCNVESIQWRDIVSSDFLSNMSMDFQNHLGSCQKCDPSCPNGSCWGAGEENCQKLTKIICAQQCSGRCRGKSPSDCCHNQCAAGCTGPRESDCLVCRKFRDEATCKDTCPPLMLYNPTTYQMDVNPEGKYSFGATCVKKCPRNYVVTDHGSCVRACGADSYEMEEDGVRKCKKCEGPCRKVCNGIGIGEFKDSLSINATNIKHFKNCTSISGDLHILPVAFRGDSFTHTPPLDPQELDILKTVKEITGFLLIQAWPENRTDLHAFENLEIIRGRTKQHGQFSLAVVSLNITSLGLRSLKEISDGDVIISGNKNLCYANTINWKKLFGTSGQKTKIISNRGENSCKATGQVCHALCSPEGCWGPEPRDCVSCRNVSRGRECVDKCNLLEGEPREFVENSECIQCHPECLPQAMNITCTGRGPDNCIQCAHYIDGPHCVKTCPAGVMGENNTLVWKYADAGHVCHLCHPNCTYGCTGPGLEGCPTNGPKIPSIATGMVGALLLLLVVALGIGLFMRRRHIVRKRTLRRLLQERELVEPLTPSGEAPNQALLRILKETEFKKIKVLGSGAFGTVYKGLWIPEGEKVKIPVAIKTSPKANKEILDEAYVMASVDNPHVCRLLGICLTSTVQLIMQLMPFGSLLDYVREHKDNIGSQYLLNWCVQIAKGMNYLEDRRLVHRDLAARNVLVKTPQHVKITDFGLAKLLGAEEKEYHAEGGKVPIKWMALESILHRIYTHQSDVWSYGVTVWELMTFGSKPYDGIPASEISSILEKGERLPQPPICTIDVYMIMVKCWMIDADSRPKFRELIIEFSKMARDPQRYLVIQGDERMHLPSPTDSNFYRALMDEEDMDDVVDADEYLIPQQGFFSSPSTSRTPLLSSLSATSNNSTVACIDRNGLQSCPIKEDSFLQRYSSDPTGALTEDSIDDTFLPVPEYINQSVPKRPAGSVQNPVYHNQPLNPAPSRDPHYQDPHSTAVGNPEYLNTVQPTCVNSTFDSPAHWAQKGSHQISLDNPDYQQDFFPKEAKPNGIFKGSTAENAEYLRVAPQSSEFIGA
Sequence of EGFR L858R/T790M/C797S (P00533 25-1210 T790M/C797S/L858R): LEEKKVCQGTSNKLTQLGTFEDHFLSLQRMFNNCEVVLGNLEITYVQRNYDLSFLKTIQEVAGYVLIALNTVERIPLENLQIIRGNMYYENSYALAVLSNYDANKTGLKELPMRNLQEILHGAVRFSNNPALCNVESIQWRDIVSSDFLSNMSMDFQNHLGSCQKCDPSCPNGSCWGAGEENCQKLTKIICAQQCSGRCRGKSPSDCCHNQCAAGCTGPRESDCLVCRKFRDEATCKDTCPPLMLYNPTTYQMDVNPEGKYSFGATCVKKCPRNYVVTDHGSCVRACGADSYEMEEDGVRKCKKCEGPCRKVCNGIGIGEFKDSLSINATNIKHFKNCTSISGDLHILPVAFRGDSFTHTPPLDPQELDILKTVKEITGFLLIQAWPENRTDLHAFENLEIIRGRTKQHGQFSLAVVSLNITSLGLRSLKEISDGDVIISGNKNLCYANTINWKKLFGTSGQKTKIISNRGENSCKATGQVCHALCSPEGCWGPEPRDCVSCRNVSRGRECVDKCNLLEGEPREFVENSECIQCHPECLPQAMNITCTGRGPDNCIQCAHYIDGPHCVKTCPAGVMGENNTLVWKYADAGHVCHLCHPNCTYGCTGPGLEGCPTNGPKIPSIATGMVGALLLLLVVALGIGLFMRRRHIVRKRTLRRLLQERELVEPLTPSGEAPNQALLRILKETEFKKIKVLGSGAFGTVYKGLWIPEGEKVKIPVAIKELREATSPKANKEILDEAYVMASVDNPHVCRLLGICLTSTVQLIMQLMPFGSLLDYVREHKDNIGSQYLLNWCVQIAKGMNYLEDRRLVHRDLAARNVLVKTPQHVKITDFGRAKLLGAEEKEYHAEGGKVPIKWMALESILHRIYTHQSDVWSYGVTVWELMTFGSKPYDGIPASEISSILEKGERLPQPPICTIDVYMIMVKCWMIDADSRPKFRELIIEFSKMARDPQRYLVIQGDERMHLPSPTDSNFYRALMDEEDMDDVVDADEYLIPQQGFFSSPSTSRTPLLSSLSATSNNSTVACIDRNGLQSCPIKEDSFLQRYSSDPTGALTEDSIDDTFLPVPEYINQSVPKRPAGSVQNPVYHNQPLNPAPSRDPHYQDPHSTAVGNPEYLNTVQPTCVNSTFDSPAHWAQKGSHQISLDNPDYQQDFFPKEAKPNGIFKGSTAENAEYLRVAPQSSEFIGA

| IC50 (EGFR del19/C797S; [1]) | IC50 (EGFR L858R/C797S; [2]) | IC50 (EGFR L858R/T790M/C797S; [3]) | IC50 (EGFR del19/T790M/C797S; [4]) | IC50 (EGFR wildtype (WT); [5]) | IC50 (EGFR del19/C797S; [6]) | IC50 (EGFR L858R/C797S; [7]) | IC50 (EGFR L858R/T790M/C797S; [8]) | IC50 (EGFR del19/T790M/C797S; [9]) | IC50 (EGFR wildtype (WT); [10]) | Structure (SMILES) | also measured |
| --- | --- | --- | --- | --- | --- | --- | --- | --- | --- | --- | --- |
| 168 nM | 7.4 nM | 2.1 nM | 3.1 nM | 264 nM |  |  |  |  |  | O=S(=O)(C1CC1)n1cc(-c2nccc(Nc3cc(NC4CCC(F)(F)C4)c(-c4ccn(C(F)F)n4)cn3)n2)cn1 (stereo not shown) [Example 179, N^2-(2-(1-(Cyclopropylsulfonyl)-1H-pyrazol-4-yl)pyrimidin-4-yl)-N^4-(3,3-difluorocyclopentyl)-5-(1-(difluoromethyl)-1H-pyrazol-3-yl)pyridine-2,4-diamine] |  |
|  |  |  |  |  | 30.1 nM | 1020 nM | 25.6 nM | 3.5 nM | > 10000 nM | CN(C)C(=O)n1cc(-c2nccc(Nc3cc(N[C@H]4CC[C@@](C)(O)CC4)c(-c4ccn(C(F)F)n4)cn3)n2)cn1 [Example 311, 4-(4-((5-(1-(Difluoromethyl)-1H-pyrazol-3-yl)-4-(((1s,4s)-4-hydroxy-4-methylcyclohexyl)amino)pyridin-2-yl)amino)pyrimidin-2-yl)-N,N-dimethyl-1H-pyrazole-1-carboxamide] |  |
|  |  |  |  |  |  |  |  |  |  | CN1CCC(n2ccc(-c3cnc(Nc4ccnc(-c5cnn(CC(F)F)c5)n4)cc3N[C@H]3CC[C@@](C)(O)CC3)n2)CC1 [Example 342, (1s,4s)-4-((2-((2-(1-(2,2-Difluoroethyl)-1H-pyrazol-4-yl)pyrimidin-4-yl)amino)-5-(1-(1-methylpiperidin-4-yl)-1H-pyrazol-3-yl)pyridin-4-yl)amino)-1-methylcyclohexan-1-ol] | IC50 (EGFR del19/C797S; [11]): 1.8 nM; IC50 (EGFR L858R/C797S; [12]): 1.3 nM; IC50 (EGFR L858R/T790M/C797S; [13]): 0.1 nM; IC50 (EGFR del19/T790M/C797S; [14]): 0.2 nM; IC50 (EGFR wildtype (WT); [15]): 2.7 nM |
| 10.8 nM | 4.7 nM | 0.4 nM | 1.1 nM | 19.9 nM |  |  |  |  |  | OCC[C@H]1CC[C@@H](Nc2cc(Nc3ccnc(-c4cnn(CC(F)F)c4)n3)ncc2-c2ccn(C(F)F)n2)CC1 [Example 146, 2-((1s,4s)-4-((2-((2-(1-(2,2-Difluoroethyl)-1H-pyrazol-4-yl)pyrimidin-4-yl)amino)-5-(1-(difluoromethyl)-1H-pyrazol-3-yl)pyridin-4-yl)amino)cyclohexyl)ethan-1-ol] |  |
|  |  |  |  |  |  |  |  |  |  | C[C@]1(O)CC[C@@H](Nc2nc(Nc3ccnc(-c4cnn(S(=O)(=O)C5CC5)c4)c3)ncc2-c2ccn(CC(F)F)n2)CC1 [Example 357, (1s,4s)-4-((2-((2-(1-(Cyclopropylsulfonyl)-1H-pyrazol-4-yl)pyridin-4-yl)amino)-5-(1-(2,2-difluoroethyl)-1H-pyrazol-3-yl)pyrimidin-4-yl)amino)-1-methylcyclohexan-1-ol] | IC50 (EGFR del19/C797S; [11]): 5.2 nM; IC50 (EGFR L858R/C797S; [12]): 8.4 nM; IC50 (EGFR L858R/T790M/C797S; [13]): 0.4 nM; IC50 (EGFR del19/T790M/C797S; [14]): 0.2 nM; IC50 (EGFR wildtype (WT); [15]): 46.2 nM |
| 31.4 nM | 9.4 nM | 0.8 nM | 0.9 nM | 199 nM | 21.8 nM | 189 nM | 5.8 nM | 0.8 nM | > 10000 nM | O=S(=O)(C1CC1)n1cc(-c2nccc(Nc3cc(OC4CCC(O)C4)c(-c4cnn(C(F)F)c4)cn3)n2)cn1 (stereo not shown) [Example 72, 3-((2-((2-(1-(Cyclopropylsulfonyl)-1H-pyrazol-4-yl)pyrimidin-4-yl)amino)-5-(1-(difluoromethyl)-1H-pyrazol-4-yl)pyridin-4-yl)oxy)cyclopentan-1-ol] |  |
| 4.1 nM | 0.5 nM | 0.3 nM | 1.1 nM | 5 nM |  |  |  |  |  | COCn1ccc(-c2cnc(Nc3ccnc(-c4cnn(S(=O)(=O)C5CC5)c4)n3)cc2N[C@H]2CC[C@@H](C(C)(C)O)CC2)n1 [Example 299, 2-((1s,4s)-4-((2-((2-(1-(Cyclopropylsulfonyl)-1H-pyrazol-4-yl)pyrimidin-4-yl)amino)-5-(1-(methoxymethyl)-1H-pyrazol-3-yl)pyridin-4-yl)amino)cyclohexyl)propan-2-ol] |  |
| 39.9 nM | 146 nM |  |  | 1610 nM | 74.5 nM | 627 nM | 12.6 nM | 2.1 nM | > 10000 nM | CS(=O)(=O)c1ccccc1Nc1nccc(Nc2cc(N[C@H]3CC[C@@](C)(O)CC3)c(-c3ccn(C(F)F)n3)cn2)n1 [Example 313, (1s,4s)-4-((5-(1-(Difluoromethyl)-1H-pyrazol-3-yl)-2-((2-((2-(methylsulfonyl)phenyl)amino)pyrimidin-4-yl)amino)pyridin-4-yl)amino)-1-methylcyclohexan-1-ol] |  |
|  |  |  |  |  | 0.4 nM | 3.5 nM | 0.1 nM | 0.1 nM | 1370 nM | CN(C)CCCn1ccc(-c2cnc(Nc3ccnc(-c4cnn(S(=O)(=O)C5CC5)c4)n3)cc2N[C@H]2CC[C@@H](NCCF)CC2)n1 [Example 301, N^2-(2-(1-(Cyclopropylsulfonyl)-1H-pyrazol-4-yl)pyrimidin-4-yl)-5-(1-(3-(dimethylamino)propyl)-1H-pyrazol-3-yl)-N^4-((1s,4s)-4-((2-fluoroethyl)amino)cyclohexyl)pyridine-2,4-diamine] |  |
| 0.7 nM | 0.4 nM | 0.1 nM | 0.2 nM | 4.9 nM |  | 14.7 nM | 0.3 nM | 0.3 nM | 5240 nM | Cn1ccc(-c2cnc(Nc3ccnc(-c4cnn(S(=O)(=O)C5CC5)c4)n3)cc2N[C@H]2CC[C@@H](NCCF)CC2)n1 [Example 43, N^2-(2-(1-(Cyclopropylsulfonyl)-1H-pyrazol-4-yl)pyrimidin-4-yl)-N^4-((1s,4s)-4-((2-fluoroethyl)amino)cyclohexyl)-5-(1-methyl-1H-pyrazol-3-yl)pyridine-2,4-diamine] |  |
|  |  |  |  |  | 1.7 nM | 8.7 nM | 0.2 nM | 0.1 nM | 1790 nM | CN(C)C[C@H]1C[C@@H](CNc2cc(Nc3ccnc(-c4cnn(S(=O)(=O)C5CC5)c4)n3)ncc2-c2ccn(C)n2)C1 [Example 234, N^2-(2-(1-(Cyclopropylsulfonyl)-1H-pyrazol-4-yl)pyrimidin-4-yl)-N^4-(((1s,3s)-3-((dimethylamino)methyl)cyclobutyl)methyl)-5-(1-methyl-1H-pyrazol-3-yl)pyridine-2,4-diamine] |  |
| 0.2 nM | 0.3 nM | 0.1 nM | 0.1 nM | 2 nM | 0.5 nM | 3.4 nM | 0.2 nM | 0.1 nM | 2500 nM | C[C@]1(O)CC[C@@H](Nc2cc(Nc3ccnc(-c4cnn(S(=O)(=O)C5CC5)c4)n3)ncc2-c2ccn(C3CC3)n2)CC1 [Example 290, (1s,4s)-4-((5-(1-Cyclopropyl-1H-pyrazol-3-yl)-2-((2-(1-(cyclopropylsulfonyl)-1H-pyrazol-4-yl)pyrimidin-4-yl)amino)pyridin-4-yl)amino)-1-methylcyclohexan-1-ol] |  |
| 24.7 nM | 23.7 nM | 1.9 nM | 2.5 nM | 34.5 nM |  |  |  |  |  | O=S(=O)(C1CC1)n1cc(-c2nccc(Nc3cc(NC4CCC(O)(C5CC5)CC4)c(-c4ccn(C(F)F)n4)cn3)n2)cn1 (stereo not shown) [Example 110, 1-Cyclopropyl-4-((2-((2-(1-(cyclopropylsulfonyl)-1H-pyrazol-4-yl)pyrimidin-4-yl)amino)-5-(1-(difluoromethyl)-1H-pyrazol-3-yl)pyridin-4-yl)amino)cyclohexan-1-ol] |  |
| 0.2 nM | 0.04 nM | 0.1 nM | 0.4 nM | 0.2 nM |  |  |  |  |  | CN(C)CC[C@H]1CC[C@@H](Nc2cc(Nc3ccnc(-c4cnn(S(=O)(=O)C5CC5)c4)n3)ncc2-c2ccn(C)n2)CC1 [Example 240, N^2-(2-(1-(Cyclopropylsulfonyl)-1H-pyrazol-4-yl)pyrimidin-4-yl)-N^4-((1s,4s)-4-(2-(dimethylamino)ethyl)cyclohexyl)-5-(1-methyl-1H-pyrazol-3-yl)pyridine-2,4-diamine] |  |

| Structure (SMILES) | IC50 (EGFR del19/C797S; [1]) | IC50 (EGFR L858R/C797S; [2]) | IC50 (EGFR L858R/T790M/C797S; [3]) | IC50 (EGFR del19/T790M/C797S; [4]) | IC50 (EGFR wildtype (WT); [5]) | IC50 (EGFR del19/C797S; [6]) | IC50 (EGFR L858R/C797S; [7]) | IC50 (EGFR L858R/T790M/C797S; [8]) | IC50 (EGFR del19/T790M/C797S; [9]) | IC50 (EGFR wildtype (WT); [10]) | also measured |
| --- | --- | --- | --- | --- | --- | --- | --- | --- | --- | --- | --- |
| CN[C@H]1CC[C@@H](Nc2cc(Nc3ccnc(-c4cnn(S(=O)(=O)C5CC5)c4)n3)ncc2-c2ccn(C)n2)CC1 [Example 88, N^2-(2-(1-(Cyclopropylsulfonyl)-1H-pyrazol-4-yl)pyrimidin-4-yl)-5-(1-methyl-1H-pyrazol-3-yl)-N^4-((1s,4s)-4-(methylamino)cyclohexyl)pyridine-2,4-diamine] | 0.5 nM | 0.3 nM | 0.1 nM | 0.2 nM | 3.2 nM |  |  |  |  |  | IC50 (EGFR del19/C797S; read-out: IC50 del19/C797S (nM) 100 μM ATP, 100 μM ATP): 1 nM; IC50 (EGFR L858R/C797S; read-out: IC50 L858R/C797S (nM) 100 μM ATP, 100 μM ATP): 3.1 nM; IC50 (EGFR L858R/T790M/C797S; read-out: IC50 L858R/T790M/C797S (nM) 100 μM ATP, 100 μM ATP): 0.3 nM; IC50 (EGFR del19/T790M/C797S; read-out: IC50 del19/T790M/C797S (nM) 100 μM ATP, 100 μM ATP): 0.3 nM; IC50 (EGFR wildtype (WT); read-out: IC50 WT (nM) 100 μM ATP, 100 μM ATP): 1980 nM |
